Data set [1] concerns the target T1, hERG cardiac potassium channel (Homo sapiens, UniProt Q12809).
T1 construct: Evotec (cryopreserved) ATCC PTA-6812; host or cells: CHO crelox hERG cell line (Chinese hamster)
Kind of data set: hERG screening assay (automated patch clamp, CHO-hERG cells). The data set is classed as cell-based. The following applies: CHO crelox hERG cells (CHO cells that express hERG), whole-cell patch clamp, 35-37° C. An excerpt:
In the drug development process of small molecules, one of the most frequent adverse side effects, leading to the failure of drugs, is the cardiac arrhythmias. Such failure is often related to the capacity of the drug to inhibit the human ether-à-go-go-related gene (hERG) cardiac potassium channel. Having no or low inhibition of the hERG cardiac potassium channel is therefore considered as beneficial.
The CHO crelox hERG cell line (ATCC reference Nr. PTA-6812, female Chinese hamster cells) was generated and validated at Roche. Ready-to-use frozen instant CHO-hERG cells were cryopreserved at Evotec (Germany) and used directly in the experiments.
The extracellular solution contains (in mM): NaCl 150; KCl 4; CaCl2 1; MgCl2 1; HEPES 10; pH 7.2-7.4 with NaOH, osmolarity 290-330 mOsm. The internal solution contains (in mM): KCl, 10; KF, 100; NaCl, 10; HEPES, 10; EGTA, 20; pH=7.0-7.4 with KOH, osmolarity 260-300 mOsm.
The effects of a compound on hERG K+-currents parameters will be evaluated at 2 concentrations in at least 4 cells.
The hERG test is performed using automated patch clamp system SynchroPatch® 384 (Nanion Technologies GmbH, Germany). K+ currents are measured with the patch-voltage-clamp technique in the whole-cell configuration at 35-37° C.
The amplitudes of IKhERG were recorded in each concentration of drug and they were compared to the vehicle control values (taken as 100%) to define fractional blocks. The concentration-response data were fitted with the following relationship:
Concentration-response curves were fitted by non-linear regression analysis using EworkBook suite (ID Business Solutions Ltd, UK). Data fit was done with the 4 Parameter Logistic Model (fit=(A+(B/(1+((x/C)^D)))), where A=0 and B=100).
(hERG is a cardiac potassium channel; its block is linked to QT prolongation.)

Data set [2] has as its target T2, NLRP3 (Homo sapiens, UniProt Q96P20). The data set can be described thus: THP-1 cells pyroptosis assay. The data set is classed as cell-based. Details: Seed THP-1 cells (25,000 cells/well) containing 1.0 μg/ml LPS; host or cells: THP-1 cells, LPS-primed, nigericin-stimulated. The following applies: LPS 1.0 μg/ml, nigericin 5 μM, resazurin readout. From the text:
It is well established that the activation of NLRP3 leads to cell pyroptosis and this feature plays an important part in the manifestation of clinical disease (Yan-gang Liu et al., Cell Death & Disease, 2017, 8(2), e2579; Alexander Wree et al., Hepatology, 2014, 59(3), 898-910; Alex Baldwin et al., Journal of Medicinal Chemistry, 2016, 59(5), 1691-1710; Ema Ozaki et al., Journal of Inflammation Research, 2015, 8, 15-27; Zhen Xie & Gang Zhao, Neuroimmunology Neuroinflammation, 2014, 1(2), 60-65; Mattia Cocco et al., Journal of Medicinal Chemistry, 2014, 57(24), 10366-10382; T. Satoh et al., Cell Death & Disease, 2013, 4, e644). Therefore, it is anticipated that inhibitors of NLRP3 will block pyroptosis, as well as the release of pro-inflammatory cytokines (e.g. […]) from the cell.
THP-1 cells (ATCC #TIB-202) were grown in RPMI containing L-glutamine (Gibco #11835) supplemented with 1 mM sodium pyruvate (Sigma #S8636) and penicillin (100 units/ml)/streptomycin (0.1 mg/ml) (Sigma #P4333) in 10% Fetal Bovine Serum (FBS) (Sigma #F0804). The cells were routinely passaged and grown to confluency (˜10^6 cells/ml). On the day of the experiment, THP-1 cells were harvested and resuspended into RPMI medium (without FBS). The cells were then counted and viability (>90%) checked by Trypan blue (Sigma #T8154). Appropriate dilutions were made to give a concentration of 625,000 cells/ml. To this diluted cell solution was added LPS (Sigma #L4524) to give a […] Final Assay Concentration (FAC). 40 μl of the final preparation was aliquoted into each well of a 96-well plate. The plate thus prepared was used for compound screening.
The following method step-by-step assay was followed for compound screening.
Seed THP-1 cells (25,000 cells/well) containing 1.0 μg/ml LPS in 40 μl of RPMI medium (without FBS) in 96-well, black walled, clear bottom cell culture plates coated with poly-D-lysine (VWR #734-0317)
Add 5 μl compound (8 points half-log dilution, with 10 μM top dose) or vehicle (DMSO 0.1% FAC) to the appropriate wells
(§1) Incubate for 3 hours at 37° C., 5% CO2
Add 5 μl nigericin (Sigma #N7143) (FAC 5 μM) to all wells
(§2) Incubate for 1 hr at 37° C., 5% CO2
At the end of the incubation period, spin plates at 300 xg for 3 mins and remove supernatant
Then add 50 μl of resazurin (Sigma #R7017) (FAC 100 μM resazurin in RPMI medium without FBS) and incubate plates for a further 1-2 hours at 37° C. and 5% CO2
Plates were read in an Envision reader at Ex 560 nm and Em 590 nm
(§3) IC50 data is fitted to a non-linear regression equation (log inhibitor vs response-variable slope 4-parameters)
For orientation: Alamar Blue is a resazurin reagent that responds to reducing activity.

Data set [3] has as its target T2, NLRP3. Kind of data set: Human whole blood IL-1β release assay. The following applies: LPS, nigericin 10 μM, IL-1β by AlphaLisa. Set-up: Human whole blood in Li-heparin tubes was obtained from healthy donors; from tissue; host or cells: human whole blood from healthy donors. In kind it is cell-based. Here is the method:
For systemic delivery, the ability to inhibit NLRP3 when the compounds are present within the bloodstream is of great importance. For this reason, the NLRP3 inhibitory activity of a number of compounds in human whole blood was investigated in accordance with the following protocol.
Human whole blood in Li-heparin tubes was obtained from healthy donors from a volunteer donor panel.
Plate out 80 μl of whole blood containing […] of LPS in 96-well, clear bottom cell culture plate (Corning #3585)
Add 10 μl compound (8 points half-log dilution with 10 μM top dose) or vehicle (DMSO 0.1% FAC) to the appropriate wells
as §1
Add 10 μl nigericin (Sigma #N7143) (10 μM FAC) to all wells
as §2
At the end of the incubation period, spin plates at 300 xg for 5 mins to pellet cells and remove 20 μl of supernatant and add to 96-well v-bottom plates for IL-1β analysis (note: these plates containing the supernatants can be stored at −80° C. to be analysed at a later date)
IL-1β was measured according to the manufacturer protocol (Perkin Elmer-AlphaLisa IL-1 Kit AL220F-5000)
as §3

For data set [4], the target named is T3, human P-gp (Homo sapiens, UniProt P08183).
T3 construct: expressed in transfected cells; host or cells: LLC-PK1 (porcine kidney epithelial cells)
T3 sequence (P08183 whole entry): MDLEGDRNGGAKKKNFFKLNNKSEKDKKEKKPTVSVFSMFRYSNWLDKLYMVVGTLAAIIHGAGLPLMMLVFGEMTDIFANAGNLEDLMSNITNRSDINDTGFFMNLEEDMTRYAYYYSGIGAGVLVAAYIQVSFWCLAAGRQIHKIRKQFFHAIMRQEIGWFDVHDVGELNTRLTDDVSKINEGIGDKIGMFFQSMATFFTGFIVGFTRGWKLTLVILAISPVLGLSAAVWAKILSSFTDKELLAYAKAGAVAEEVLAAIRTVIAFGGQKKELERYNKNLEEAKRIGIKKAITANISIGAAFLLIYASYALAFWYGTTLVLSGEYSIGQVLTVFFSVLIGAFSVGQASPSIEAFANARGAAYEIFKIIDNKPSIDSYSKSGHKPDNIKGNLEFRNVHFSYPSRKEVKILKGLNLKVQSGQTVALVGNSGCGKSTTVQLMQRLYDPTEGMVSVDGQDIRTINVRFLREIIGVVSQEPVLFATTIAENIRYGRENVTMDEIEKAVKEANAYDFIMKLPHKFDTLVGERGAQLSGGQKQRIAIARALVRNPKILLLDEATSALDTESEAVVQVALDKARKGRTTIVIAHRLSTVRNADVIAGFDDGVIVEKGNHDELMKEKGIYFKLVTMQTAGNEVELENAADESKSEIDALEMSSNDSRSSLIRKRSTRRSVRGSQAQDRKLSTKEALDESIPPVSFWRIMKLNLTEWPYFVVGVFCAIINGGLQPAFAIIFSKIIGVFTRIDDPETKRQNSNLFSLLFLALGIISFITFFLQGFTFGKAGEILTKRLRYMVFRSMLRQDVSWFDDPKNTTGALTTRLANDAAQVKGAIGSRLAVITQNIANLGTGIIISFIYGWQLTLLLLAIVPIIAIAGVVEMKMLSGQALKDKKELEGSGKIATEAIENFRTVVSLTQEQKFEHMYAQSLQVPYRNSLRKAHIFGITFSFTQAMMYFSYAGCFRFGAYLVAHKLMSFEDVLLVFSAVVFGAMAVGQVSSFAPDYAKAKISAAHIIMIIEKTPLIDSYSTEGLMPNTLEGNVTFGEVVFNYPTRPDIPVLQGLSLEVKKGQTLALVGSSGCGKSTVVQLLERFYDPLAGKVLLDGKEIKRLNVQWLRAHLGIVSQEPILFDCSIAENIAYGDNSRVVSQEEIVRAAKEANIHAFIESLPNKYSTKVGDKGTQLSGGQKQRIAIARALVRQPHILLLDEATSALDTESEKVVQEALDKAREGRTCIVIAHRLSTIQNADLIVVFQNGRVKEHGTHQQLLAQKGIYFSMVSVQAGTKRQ
Kind of data set: Transcellular human P-gp assay (transfected LLC-PK1 cells). The following applies: LLC-PK1 cells over-expressing human P-gp. The data set is classed as in vitro ADME. From the text:
The general assay uses transfected LLC-PK1 cells (porcine kidney epithelial cells) over-expressing human or mouse P-gp, cultured on 96 well semi-permeable filter membrane plates, where they form a polarized monolayer with tight junctions, and act as a barrier between the apical and basolateral compartment.
P-gp is expressed in the apical-facing membrane of the monolayer. […] J. Pharmacol. Exp Ther., 2021, 376, 322-329.

The IC20 is the concentration needed for an effect of 20%. Low values mean an effect from little substance, high ones a need for much substance. Broadly, the IC50 is the concentration that inhibits the measured activity by half. Higher therefore signals weaker potency in that assay.

T2 sequence (Q96P20 whole entry): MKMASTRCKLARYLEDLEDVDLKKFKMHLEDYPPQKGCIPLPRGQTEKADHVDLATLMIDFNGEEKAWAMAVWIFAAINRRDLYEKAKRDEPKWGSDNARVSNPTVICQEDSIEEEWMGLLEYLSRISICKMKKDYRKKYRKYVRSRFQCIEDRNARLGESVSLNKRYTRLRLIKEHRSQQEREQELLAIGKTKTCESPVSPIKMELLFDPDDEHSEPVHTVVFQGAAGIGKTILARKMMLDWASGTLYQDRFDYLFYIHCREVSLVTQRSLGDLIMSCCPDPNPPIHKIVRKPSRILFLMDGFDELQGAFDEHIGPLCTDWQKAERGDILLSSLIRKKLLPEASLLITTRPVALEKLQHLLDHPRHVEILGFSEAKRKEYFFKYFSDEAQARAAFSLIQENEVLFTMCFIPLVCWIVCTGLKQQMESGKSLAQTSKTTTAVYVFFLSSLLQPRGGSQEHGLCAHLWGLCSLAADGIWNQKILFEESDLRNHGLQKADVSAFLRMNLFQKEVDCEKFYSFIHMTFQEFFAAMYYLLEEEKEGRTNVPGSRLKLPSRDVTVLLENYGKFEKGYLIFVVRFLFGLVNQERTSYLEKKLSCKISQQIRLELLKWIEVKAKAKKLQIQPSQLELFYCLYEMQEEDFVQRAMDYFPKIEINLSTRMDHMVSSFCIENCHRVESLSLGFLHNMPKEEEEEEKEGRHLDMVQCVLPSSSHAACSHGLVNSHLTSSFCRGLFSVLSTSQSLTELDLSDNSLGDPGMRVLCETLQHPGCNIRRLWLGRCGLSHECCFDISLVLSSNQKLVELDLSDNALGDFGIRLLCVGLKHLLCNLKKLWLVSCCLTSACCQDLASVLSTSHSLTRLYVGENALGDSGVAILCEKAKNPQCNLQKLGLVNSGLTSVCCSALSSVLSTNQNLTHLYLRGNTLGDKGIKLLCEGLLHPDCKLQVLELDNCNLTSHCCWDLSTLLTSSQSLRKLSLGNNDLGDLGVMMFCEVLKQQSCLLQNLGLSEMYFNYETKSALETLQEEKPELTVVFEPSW
T1 sequence (Q12809 whole entry): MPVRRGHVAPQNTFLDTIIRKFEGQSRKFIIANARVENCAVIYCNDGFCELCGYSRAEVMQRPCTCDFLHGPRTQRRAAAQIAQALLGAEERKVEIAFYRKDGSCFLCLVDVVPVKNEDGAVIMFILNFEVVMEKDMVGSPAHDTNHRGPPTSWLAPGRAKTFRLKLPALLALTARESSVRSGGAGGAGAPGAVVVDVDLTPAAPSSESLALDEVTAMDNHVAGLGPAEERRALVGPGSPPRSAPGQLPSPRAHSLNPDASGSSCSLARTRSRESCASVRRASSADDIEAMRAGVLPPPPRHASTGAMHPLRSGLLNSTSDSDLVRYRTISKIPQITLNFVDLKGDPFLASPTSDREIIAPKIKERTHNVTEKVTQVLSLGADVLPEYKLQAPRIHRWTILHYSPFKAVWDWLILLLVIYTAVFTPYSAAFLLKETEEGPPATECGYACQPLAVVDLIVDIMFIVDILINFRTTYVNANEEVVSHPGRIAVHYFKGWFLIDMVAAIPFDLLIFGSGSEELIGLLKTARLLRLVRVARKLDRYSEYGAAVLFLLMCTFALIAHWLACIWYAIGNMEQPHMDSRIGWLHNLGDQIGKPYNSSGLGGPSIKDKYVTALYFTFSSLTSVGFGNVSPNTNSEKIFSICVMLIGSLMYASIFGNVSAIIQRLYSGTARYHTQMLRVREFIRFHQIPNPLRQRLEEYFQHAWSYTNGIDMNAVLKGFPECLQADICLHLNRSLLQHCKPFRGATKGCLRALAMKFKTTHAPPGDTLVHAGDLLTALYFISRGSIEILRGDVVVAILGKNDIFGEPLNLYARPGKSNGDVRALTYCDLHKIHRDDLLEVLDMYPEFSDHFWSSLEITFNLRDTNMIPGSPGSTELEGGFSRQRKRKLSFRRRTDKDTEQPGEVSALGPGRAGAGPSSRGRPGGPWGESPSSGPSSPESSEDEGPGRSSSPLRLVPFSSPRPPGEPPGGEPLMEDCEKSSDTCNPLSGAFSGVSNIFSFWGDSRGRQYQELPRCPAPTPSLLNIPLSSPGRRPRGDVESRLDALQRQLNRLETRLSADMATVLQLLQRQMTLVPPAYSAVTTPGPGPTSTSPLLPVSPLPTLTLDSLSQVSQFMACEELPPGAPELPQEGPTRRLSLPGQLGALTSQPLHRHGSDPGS

`COCc1cc2c(c(O)c1-c1ccc3oc(N[C@@H]4CCCN(CCO)C4)nc3n1)CCO2` [Example 12, 5-[2-[[(3R)-1-(2-Hydroxyethyl)-3-piperidyl]amino]oxazolo[4,5-b]pyridin-5-yl]-6-(methoxymethyl)-2,3-dihydrobenzofuran-4-ol]: the IC20 in data set [1] was over 10000 nM. Further, the IC50 in data set [2] stood at 8 nM; in data set [3] it was 15 nM.

As to `Cc1cc2c(c(O)c1-c1ccc3oc(N[C@@H]4CCCN(CCO)C4)nc3n1)CCO2` [Example 14, 5-[2-[[(3R)-1-(2-Hydroxyethyl)-3-piperidyl]amino]oxazolo[4,5-b]pyridin-5-yl]-6-methyl-2,3-dihydrobenzofuran-4-ol], the efflux ratio in data set [4] (read-out: ER (efflux ratio)) turned out to be 4. In addition, in data set [4] (read-out: Permeability), the Papp was found to be 13.5 ×10⁻⁶ cm/s. Besides, the IC50 is 0.6 nM in data set [2] and 22 nM in data set [3].

With `COCc1cc(C#N)cc(O)c1-c1cnc2oc(N[C@@H]3CCCN(CCO)C3)nc2n1` [Example 15, 3-Hydroxy-4-[2-[[(3R)-1-(2-hydroxyethyl)-3-piperidyl]amino]oxazolo[4,5-b]pyrazin-5-yl]-5-(methoxymethyl)benzonitrile;2,2,2-trifluoroacetic Acid], the IC20 in data set [1] was over 10000 nM. Further, the IC50 in data set [2] was determined as 34 nM; in data set [3] it was 33 nM.

`Cc1cc2c(c(O)c1-c1cnc3oc(N[C@@H]4CCCN(CCO)C4)nc3n1)CCC2` [Example 18, 5-[2-[[(3R)-1-(2-Hydroxyethyl)-3-piperidyl]amino]oxazolo[4,5-b]pyrazin-5-yl]-6-methyl-indan-4-ol] displayed a concentration for an effect of 20% (IC20) in data set [1] of 6300 nM. The compound further had an IC50 in data set [2] of 2 nM.

Regarding `Cc1cc2c(c(O)c1-c1cnc3oc(N[C@@H]4C[C@H](O)CN(CCO)C4)nc3n1)CCO2` [Example 24, (3S,5R)-1-(2-Hydroxyethyl)-5-[[5-(4-hydroxy-6-methyl-2,3-dihydrobenzofuran-5-yl)oxazolo[4,5-b]pyrazin-2-yl]amino]piperidin-3-ol], the IC50 in data set [2] is 19 nM; in data set [3], 53 nM.

As for `CCN1C[C@@H](O)C[C@@H](Nc2nc3nc(-c4c(C)cc5c(c4O)CCO5)cnc3o2)C1` [Example 25, (3S,5R)-1-Ethyl-5-[[5-(4-hydroxy-6-methyl-2,3-dihydrobenzofuran-5-yl)oxazolo[4,5-b]pyrazin-2-yl]amino]piperidin-3-ol], the IC50 came out at 2 nM in data set [2] and 16 nM in data set [3].

With `CCN1C[C@@H](O)C[C@@H](Nc2nc3nc(-c4c(C)cc(C#N)cc4O)cc(F)c3o2)C1` [Example 27, 4-[2-[[(3R,5S)-1-Ethyl-5-hydroxy-3-piperidyl]amino]-7-fluoro-oxazolo[4,5-b]pyridin-5-yl]-3-hydroxy-5-methyl-benzonitrile], the IC50 worked out at 6 nM in data set [2] and 95 nM in data set [3].

With `Cc1cc(C#N)cc(O)c1-c1ccc2oc(N[C@@H]3CCCN(CCCc4ncco4)C3)nc2n1` [Example 28, 3-Hydroxy-5-methyl-4-[2-[[(3R)-1-(3-oxazol-2-ylpropyl)-3-piperidyl]amino]oxazolo[4,5-b]pyridin-5-yl]benzonitrile], the figures for the IC50 in data set [2] and in data set [3] were 23 nM and 86 nM, respectively.

For the compound `Cc1cc(C#N)cc(O)c1-c1cc(F)c2oc(N[C@@H]3CCCN(CCO)C3)nc2n1` [Example 29, 4-[7-Fluoro-2-[[(3R)-1-(2-hydroxyethyl)-3-piperidyl]amino]oxazolo[4,5-b]pyridin-5-yl]-3-hydroxy-5-methyl-benzonitrile], the values for the IC50 in data set [2] and in data set [3] were 7 nM and 124 nM, respectively.

Take `CCN1C[C@@H](O)C[C@@H](Nc2nc3nc(-c4c(C)cc(C#N)cc4O)cc(OC)c3o2)C1` [Example 30, 4-[2-[[(3R,5S)-1-Ethyl-5-hydroxy-3-piperidyl]amino]-7-methoxy-oxazolo[4,5-b]pyridin-5-yl]-3-hydroxy-5-methyl-benzonitrile]: the IC50 in data set [2] worked out at 13 nM; in data set [3], 48 nM.

Values taken from patent US20260092073A1, “NOVEL COMPOUNDS” (Hoffmann-La Roche Inc., priority 2023, published 2026).
